From patent publication US8552199B2, “Substituted indanes, method for the production thereof, and use thereof as drugs” (Sanofi, priority 2009, dated 2013)

Target: human MCH receptor (Homo sapiens (Human), UniProt Q99705)
Assay: calcium mobilization assay (FLIPR); functional IC50 values of MCH1R antagonists
Assay type: cell-based
Settings: recombinant HEK293 cell line expressing the human MCH receptor, cellular calcium flux after addition of agonist (MCH)
Description: Influence on the MCH Receptor in vitro; Determination of Functional IC50 Values of MCH1R Antagonists
Cloning of the cDNA for the human MCH receptor, preparation of a recombinant HEK293 cell line which expresses the human MCH receptor, and functional measurements with the recombinant cell line took place in analogy to the description by Audinot et al. (J. Biol. Chem. 2001, 276, 13554-13562). A difference from the reference was, however, the use of the plasmid pEAK8 from EDGE Biosystems (USA) for the construction of the expression vector. The host used for the transfection was a transformed HEK cell line named “PEAK Stable Cells” (likewise from EDGE Biosystems). Functional measurements of the cellular calcium flux after addition of agonist (MCH) in the presence of ligand of the invention took place with the aid of the FLIPR apparatus from Molecular Devices (USA), using protocols of the apparatus manufacturer. The compounds of the invention show a significant inhibition (>30%) of the signal induced by the agonist at a concentration of 100 μM, preferably at 10 μM, particularly preferably at 1 μM, very particularly preferably at 100 nM and very very particularly preferably at 10 nM.

Chain of human MCH receptor (Q99705 whole entry): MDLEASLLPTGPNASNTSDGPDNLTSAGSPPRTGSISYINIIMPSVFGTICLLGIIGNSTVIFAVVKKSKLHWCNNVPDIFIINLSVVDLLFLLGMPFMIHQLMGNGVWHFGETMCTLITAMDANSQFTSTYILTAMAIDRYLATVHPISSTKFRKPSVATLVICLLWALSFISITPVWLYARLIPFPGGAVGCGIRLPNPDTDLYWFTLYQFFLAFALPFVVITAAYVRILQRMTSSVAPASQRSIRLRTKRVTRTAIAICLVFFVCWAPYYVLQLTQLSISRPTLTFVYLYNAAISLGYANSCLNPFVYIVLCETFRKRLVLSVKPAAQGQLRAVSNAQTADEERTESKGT

IC50 [nM]	Structure (SMILES)
848	O=C(N[C@@H]1Cc2ccc(CNCCC3CC3)cc2C1)c1ccc(OCC2CC2)cn1 [Example 1-55]
1040	CC1(CNCc2ccc3c(c2)C[C@H](NC(=O)c2ccc(OCC4CC4)cn2)C3)CC1 [Example 1-58]
766	O=C(N[C@@H]1Cc2ccc(CN3CCCCCC3)cc2C1)c1ccc(OC[C@@H]2CCCO2)cn1 [Example 1-50]
294	CN(C(=O)c1ccc(OCC2CC2)cc1)[C@@H]1Cc2ccc(CN3CCC(C(C)(C)O)CC3)cc2C1 [Example 1-05]
198	CC[C@H](C)NCc1ccc2c(c1)C[C@H](N(C)C(=O)c1ccc(OCC3CC3)cc1)C2 [Example 1-36]
139	CN(C(=O)c1ccc(OCC2CC2)cc1)[C@@H]1Cc2ccc(CN3CCCCCC3)cc2C1 [Example 1-09]
111	CN(C(=O)c1ccc(OCC2CC2)cc1)[C@@H]1Cc2ccc(CN3CCC3)cc2C1 [Example 1-31]
115	CN(C(=O)c1ccc(OCC2CC2)cc1)[C@@H]1Cc2ccc(CN3CC[C@H](O)C3)cc2C1 [Example 1-38]
208	CC1(C)CCN(Cc2ccc3c(c2)C[C@H](NC(=O)c2ccc(OC[C@@H]4CCCO4)cc2)C3)CC1 [Example 1-40]
117	COCCCNCc1ccc2c(c1)C[C@H](N(C)C(=O)c1ccc(OCC3CC3)cc1)C2 [Example 1-27]
222	CC(C)(C)CNCc1ccc2c(c1)C[C@H](NC(=O)c1ccc(OC[C@@H]3CCCO3)cc1)C2 [Example 1-42]
144	CN(C(=O)c1ccc(OCC2CC2)cc1)[C@@H]1Cc2ccc(CNCC(C)(C)C)cc2C1 [Example 1-23]
123	CN(C(=O)c1ccc(OCC2CC2)cc1)[C@@H]1Cc2ccc(CNCC3CCOCC3)cc2C1 [Example 1-15]
1140	CN1CCCC1c1ccc2c(c1)C[C@H](N(C)C(=O)c1ccc(OCC3CC3)cn1)C2 (stereo partly drawn) [Example 3-1, N-Methyl-N-[(R)-5-(1-methylpyrrolidin-2-yl)indan-2-yl]-5-cyclopropylmethoxypyridine-2-carboxamide]
229	CN(C(=O)c1ccc(OC[C@@H]2CCCO2)cc1)[C@@H]1Cc2ccc(CN3CC4CCC3CC4)cc2C1 [Example 1-47]
121	CN(C(=O)c1ccc(OCC2CC2)cc1)[C@@H]1Cc2ccc(CNCC3(C)CC3)cc2C1 [Example 1-34]
179	CN(C(=O)c1ccc(OCC2CC2)cn1)[C@@H]1Cc2ccc(CN3CCCCC3)cc2C1 [Example 1-81]
144	CN(C(=O)c1ccc(OC[C@@H]2CCCO2)cc1)[C@@H]1Cc2ccc(CNCC(C)(C)C)cc2C1 [Example 1-46]
147	CCCCOc1ccc(C(=O)N(C)[C@@H]2Cc3ccc(CNCC4(C)CCOCC4)cc3C2)nc1 [Example 1-72]
777	O=C1c2ccc(OC[C@@H]3CCCO3)cc2CCN1[C@@H]1Cc2ccc(CNC3CCCCC3)cc2C1 [Example 1-90]
194	CCCCOc1ccc(C(=O)N(C)[C@@H]2Cc3ccc(CNC[C@@H]4CCCO4)cc3C2)nc1 [Example 1-66]
147	CCN(C)Cc1ccc2c(c1)C[C@H](N(C)C(=O)c1ccc(OCC3CC3)cc1)C2 [Example 1-32]
173	CCCCOc1ccc(C(=O)N(C)[C@@H]2Cc3ccc(CN4C[C@@H]5CC[C@H]4C5)cc3C2)nc1 [Example 1-62]

Structure (SMILES)	IC50 [nM]
CCCCOc1ccc(C(=O)N(C)[C@@H]2Cc3ccc([C@H]4CCCN4)cc3C2)cc1 [Example 2, 4-Butoxy-N-methyl-N-((R)-(R)-5-pyrrolidin-2-ylindan-2-yl)benzamide]	255
